Assay [1] has as its system Pseudomonas aeruginosa. The assay can be described thus: Antibiofilm activity against Pseudomonas aeruginosa PA14 after 24 hrs by crystal violet staining based method. The class given is functional.
The test system of assay [2] is Pseudomonas aeruginosa. The assay can be described thus: Inhibition of planktonic growth of Pseudomonas aeruginosa PA14 cells. It is filed as organism-based.
The test system of assay [3] is Salmonella typhimurium. The assay can be described thus: Antibiofilm activity against Salmonella typhimurium ATCC 14028 after 24 hrs by crystal violet staining based method. The class given is functional, Salmonella enterica subsp. enterica serovar Typhimurium.
For assay [4], the system named is Salmonella typhimurium. The assay can be described thus: Inhibition of planktonic growth of Salmonella typhimurium ATCC 14028. It is filed as organism-based, Salmonella enterica subsp. enterica serovar Typhimurium. The settings on record: Salmonella enterica.
Assay [5] deals with Staphylococcus aureus. Description: Antibiofilm activity against Staphylococcus aureus SH1000 after 48 hrs by crystal violet staining based method. It is filed as functional.
In assay [6] the test system is Staphylococcus aureus. The assay can be described thus: Inhibition of planktonic growth of Staphylococcus aureus SH1000. It is filed as organism-based.
In assay [7] the test system is A-375. The assay can be described thus: Antiproliferative activity against human A375 cells after 48 hrs by MTT assay. It is filed as functional, cell-based. Particulars: A-375, 48 h. Background: Tetrazolium assays rely on reduction of a dye to a coloured formazan, in cell work by metabolically active cells.
Assay [8] has as its system MIA PaCa-2. The assay can be described thus: Antiproliferative activity against human MIAPaCa2 cells after 48 hrs by MTT assay. It is filed as functional, cell-based. Particulars: MIA PaCa-2, 48 h.
The subject of assay [9] is A-375. Description: Cytotoxicity against human A375 cells assessed as reduction in cell viability at IC50 concentration after 24 hrs by calcein AM-dye based assay. The class given is functional.
The subject of assay [10] is MIA PaCa-2. The assay can be described thus: Cytotoxicity against human MIAPaCa2 cells assessed as reduction in cell viability at IC50 concentration after 24 hrs by calcein AM-dye based assay. The class given is functional.
The subject of assay [11] is A-375. The assay can be described thus: Antiproliferative activity against human A375 cells assessed as reduction in colony forming ability at IC50 concentration after 10 to 14 days by crystal violet-staining based assay. The class given is functional, cell-based.
Assay [12] concerns MIA PaCa-2. The assay can be described thus: Antiproliferative activity against human MIAPaCa2 cells assessed as reduction in colony forming ability at IC50 concentration after 10 to 14 days by crystal violet-staining based assay. The class given is functional, cell-based.
In assay [13] the test system is A-375. Description: Cell cycle arrest in human A375 cells assessed as accumulation at subG1 phase at IC50 concentration after 48 hrs by propidium iodide staining based flow cytometry (reference value: 1.1 +/- 0.4%). The class given is functional. On the technique in general: In flow cytometry, cells or beads pass a laser one at a time.
The test system of assay [14] is A-375. The assay can be described thus: Cell cycle arrest in human A375 cells assessed as accumulation at G0/G1 phase at IC50 concentration after 48 hrs by propidium iodide staining based flow cytometry (reference value: 64.18 +/- 2.6%). It is filed as functional.
Assay [15] relates to A-375. Description: Cell cycle arrest in human A375 cells assessed as accumulation at S phase at IC50 concentration after 48 hrs by propidium iodide staining based flow cytometry (reference value: 30.48 +/- 1.4%). It is filed as functional.
Assay [16] has as its system A-375. The assay can be described thus: Cell cycle arrest in human A375 cells assessed as accumulation at G2/M phase at IC50 concentration after 48 hrs by propidium iodide staining based flow cytometry (reference value: 8.18 +/- 2.2%). The class given is functional.
The subject of assay [17] is MIA PaCa-2. Description: Cell cycle arrest in human MIAPaCa2 cells assessed as accumulation at subG1 phase at IC50 concentration after 48 hrs by propidium iodide staining based flow cytometry (reference value: 1.53 +/- 0.4%). It is filed as functional.
Assay [18] deals with MIA PaCa-2. Description: Cell cycle arrest in human MIAPaCa2 cells assessed as accumulation at G0/G1 phase at IC50 concentration after 48 hrs by propidium iodide staining based flow cytometry (reference value: 66.05 +/- 2.2%). It is filed as functional.
Assay [19] concerns MIA PaCa-2. Description: Cell cycle arrest in human MIAPaCa2 cells assessed as accumulation at S phase at IC50 concentration after 48 hrs by propidium iodide staining based flow cytometry (reference value: 17.29 +/- 1.8%). It is filed as functional.
Assay [20] concerns MIA PaCa-2. The assay can be described thus: Cell cycle arrest in human MIAPaCa2 cells assessed as accumulation at G2/M phase at IC50 concentration after 48 hrs by propidium iodide staining based flow cytometry (reference value: 16.66 +/- 0.8%). It is filed as functional.

The source made the active and inactive calls. The calls are words filed in the database; no cut-off is given here.

Regarding `Cc1ccc(Cc2nc(N)n(CC(=O)Nc3ccc(C)cc3)c2-c2ccccc2Br)cc1`, the MBIC50 in [1] was 191 µM; in assay [3] it was 3.6 µM; in [5], 5.5 µM. For the same molecule, the IC50 is 10.9 µM in [2]; > 400 µM in [4]; 5.8 µM in assay [6]; 1.3 µM in assay [7]; 2.9 µM in assay [8]. In addition, the result in [9], in assay [10], in [11] and in [12] was Active. Besides, the Activity in assay [13] stood at 24.71%; in [14], 36.34%; in [15] it was 26.59%; in [16], 66.85%; in assay [17], 16.33%; in assay [18], 36.39%. In addition, the Activity in [19] turned out to be 17.04%; in assay [20] it was 48.99%.

As to `COc1ccc(Cc2nc(N)n(CC(=O)Nc3ccccc3)c2-c2ccccc2Br)cc1`, the MBIC50 in assay [1] amounted to 12.6 µM; in [3], 17 µM; in [5], 4.3 µM. Further, the IC50 in assay [2] is 13.1 µM; in [4], 46.4 µM; in assay [6], 23.3 µM; in assay [7], 1.4 µM; in assay [8] it was 3.2 µM. For the same molecule, the outcome in [9], in assay [10], in assay [11] and in assay [12] was Active. In addition, the Activity in assay [13] was determined as 19.88%; in assay [14], 43.56%; in assay [15] it was 32.1%; in assay [16], 55.33%; in [17], 11.21%; in assay [18], 50.41%. The Activity in [19] was found to be 24.5%; in assay [20] it was 40.45%.

In the case of `Cc1ccc(NC(=O)Cn2c(N)nc(CC3CCCC3)c2-c2ccccc2Br)cc1`, the MBIC50 was >400 µM in assay [1], >400 µM in [3] and 289.6 µM in [5]. Also, the IC50 in assay [2] is > 400 µM; in assay [4], > 400 µM; in assay [6] it was > 400 µM; in [7] it was 47.8 µM; in [8], 80.5 µM.

The IC50 is the concentration needed to halve the response being measured. The low end stands for greater potency in that assay, the high end for weaker potency in that assay.
